Experimental data published in patent publication US20100120858A1, “Piperidine Derivatives” (Pfizer Inc., priority 2006, published 2010).
pKi: −log10 of the molar value. Where a name gives a salt, the structure may show the parent alone.

Tests used:
[1] = target: human serotonin transporter (Homo sapiens, UniProt P31645); test: Human serotonin (hSERT) receptor binding, [125I]-RTI-55; conditions: membranes of HEK-293 cells transfected with human serotonin transporter cDNA, IC50 converted by Cheng-Prusoff
Sequence of human serotonin transporter (P31645 whole entry): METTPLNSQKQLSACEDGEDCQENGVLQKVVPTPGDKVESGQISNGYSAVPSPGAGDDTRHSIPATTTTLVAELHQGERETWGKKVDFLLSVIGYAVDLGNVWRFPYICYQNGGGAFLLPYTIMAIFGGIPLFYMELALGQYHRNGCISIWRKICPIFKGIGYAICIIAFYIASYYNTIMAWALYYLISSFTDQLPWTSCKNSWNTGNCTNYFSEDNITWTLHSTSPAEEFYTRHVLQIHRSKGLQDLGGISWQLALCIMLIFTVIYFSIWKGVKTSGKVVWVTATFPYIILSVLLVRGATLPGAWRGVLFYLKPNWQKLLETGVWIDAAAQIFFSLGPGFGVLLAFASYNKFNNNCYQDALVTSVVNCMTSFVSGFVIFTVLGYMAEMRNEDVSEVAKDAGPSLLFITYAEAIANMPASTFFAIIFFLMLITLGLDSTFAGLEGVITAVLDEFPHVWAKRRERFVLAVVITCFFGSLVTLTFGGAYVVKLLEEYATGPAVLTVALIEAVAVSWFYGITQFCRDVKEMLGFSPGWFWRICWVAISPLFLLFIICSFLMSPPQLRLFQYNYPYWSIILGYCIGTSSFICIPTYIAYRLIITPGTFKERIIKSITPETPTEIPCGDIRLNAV
Method: (§1) Cell pastes of HEK-293 cells transfected with a human serotonin transporter cDNA were prepared. The cell pastes were resuspended in 400 to 700 ml of Krebs-HEPES assay buffer (25 mM HEPES, 122 mM NaCl, 3 mM KCl, 1.2 mM MgSO4, 1.3 mM CaCl2, and 11 mM glucose, pH 7.4) with a Polytron homogenizer at Setting 7 for 30 seconds. Aliquots of membranes (˜2.5 mg/mL protein) were stored in liquid nitrogen until used.
Assays were set up in FlashPlates pre-coated with 0.1% polyethyleneimine (PEI) in a total volume of 250 μL containing: test compound (concentration 10^−5M to 10^−12M), cell membranes, and […] [^125I]-RTI-55 (Perkin Elmer, NEX-272; specific activity 2200 Ci/mmol). The reaction was incubated and gently agitated for 90 minutes at room temperature, and terminated by removal of assay volume. Plates were covered, and bound [^125I]-RTI-55 was determined using a Wallac Trilux Beta Plate Counter. Test compounds were run in duplicate, and specific binding was defined as the difference between binding in the presence and absence of 10 μM citalopram.
Excel and GraphPad Prism software were used for data calculation and analysis. IC50 values were converted to Ki values using the Cheng-Prusoff equation.

[2] = target: human norepinephrine transporter (Homo sapiens, UniProt P23975); test: Human norepinephrine (hNET) receptor binding, [125I]-RTI-55; conditions: membranes of HEK-293 cells transfected with human norepinephrine transporter cDNA; 50 pM [125I]-RTI-55; IC50 converted by Cheng-Prusoff
Sequence of human norepinephrine transporter (P23975 whole entry): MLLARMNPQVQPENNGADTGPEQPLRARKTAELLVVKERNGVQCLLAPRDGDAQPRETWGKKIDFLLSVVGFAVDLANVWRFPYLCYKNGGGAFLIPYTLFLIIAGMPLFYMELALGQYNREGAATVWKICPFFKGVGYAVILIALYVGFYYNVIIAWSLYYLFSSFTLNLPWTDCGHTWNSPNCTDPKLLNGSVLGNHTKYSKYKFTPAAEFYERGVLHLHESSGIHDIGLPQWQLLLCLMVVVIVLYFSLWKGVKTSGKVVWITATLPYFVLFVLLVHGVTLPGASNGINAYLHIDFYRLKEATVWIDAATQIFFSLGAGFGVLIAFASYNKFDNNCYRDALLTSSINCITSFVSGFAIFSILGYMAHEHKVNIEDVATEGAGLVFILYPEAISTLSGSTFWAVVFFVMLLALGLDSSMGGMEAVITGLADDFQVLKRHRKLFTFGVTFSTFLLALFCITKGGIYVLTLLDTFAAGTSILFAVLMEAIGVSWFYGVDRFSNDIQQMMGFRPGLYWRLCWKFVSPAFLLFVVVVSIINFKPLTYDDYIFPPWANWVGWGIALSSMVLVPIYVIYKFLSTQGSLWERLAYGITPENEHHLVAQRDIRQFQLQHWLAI
Method: as §1, with “human embryonic kidney 293 (HEK-293)” for “HEK-293”, “norepinephrine” for “serotonin”, “mL” for “ml”, “Krebs-N-2-hydroxyethylpiperazine-N′-2-ethanesulfonic acid (HEPES)” for “Krebs-HEPES”, “setting” for “Setting”, “(5” for “(˜2.5”
The binding assay was set up in Beckman deep-well polypropylene plates with a total volume of 250 μL containing: test compound (concentration of 10^−5M to 10^−12M), cell membranes, and 50 pM [^125I]-RTI-55 ([^125I]-3 beta-(4-iodophenyl)tropan-2 beta-carboxylic acid methyl ester) (Perkin Elmer, NEX-272; specific activity 2200 Ci/mmol). The reaction was incubated by gentle agitation for 90 minutes at room temperature and was terminated by filtration through Whatman GF/C filter plates using a Brandel 96-well plate harvester. Scintillation fluid (100 μL) was added to each well, and bound [^125I]-RTI-55 was determined using a Wallac Trilux Beta Plate Counter. Test compounds were run in duplicate, and specific binding was defined as the difference between binding in the presence and absence of 10 μM desipramine.
Excel and GraphPad Prism software were used for data calculation and analysis. IC50 values were converted to Ki values using the Cheng-Prusoff equation. The Ki values (nM) for the hNET are reported below in Table 13.

melting point	pKi [1]	pKi [2]	Structure (SMILES)
82 to 88 °C (dec.)	–	–	CCOc1ccccc1OC(c1ccccc1)[C@H]1CCCNC1 (mixture of isomers) (as salt: fumaric acid salt) (hydrate or solvate) [Example 106, (S)-3-[(2-ethoxy-phenoxy)-(R,S)-phenyl-methyl]-piperidine fumaric acid]
191 to 192 °C	–	–	Fc1ccc(Oc2ncccc2OC(c2ccccc2)C2CCCNC2)cc1 (single isomer, unassigned; stereoisomer a) (as salt: fumaric acid salt) (hydrate or solvate) [Example 88, 2-(4-fluoro-phenoxy)-3-[((R or S)-phenyl)-((S)-piperidin-3-yl)-methoxy]-pyridine fumaric acid, stereoisomer A]
159 to 161 °C	–	–	CCOc1ncccc1OC(c1ccccc1)C1CCCNC1 (single isomer, unassigned; stereoisomer a) (as salt: fumaric acid salt) [Example 90, 2-ethoxy-3-[((R or S)-phenyl)-((S)-piperidin-3-yl)-methoxy]-pyridine fumaric acid, stereoisomer A]
150 to 152 °C	–	–	Fc1ccc(Oc2ncccc2OC(c2ccccc2)C2CCCNC2)cc1 (single isomer, unassigned; stereoisomer b) (as salt: fumaric acid salt) [Example 89, 2-(4-fluoro-phenoxy)-3-[((R or S)-phenyl)-((S)-piperidin-3-yl)-methoxy]-pyridine fumaric acid, stereoisomer B]
58 to 68 °C (dec.)	–	–	CCOc1ncccc1OC(c1ccccc1)C1CCCNC1 (single isomer, unassigned; stereoisomer b) (as salt: fumaric acid salt) [Example 91, 2-ethoxy-3-[((R or S)-phenyl)-((S)-piperidin-3-yl)-methoxy]-pyridine fumaric acid, stereoisomer B]
134 to 136 °C	5.64	9.15	Cl.c1ccc(Oc2ccccc2OC[C@H]2CCCNC2)cc1 [Example 43, (S)-3-(2-phenoxy-phenoxymethyl)-piperidine hydrochloride]
128 to 130 °C	6.49	8.70	Fc1ccc(OC[C@H]2CCCNC2)c(Oc2ccccc2)c1.O=C(O)/C=C/C(=O)O [Example 46, (S)-3-(4-fluoro-2-phenoxy-phenoxymethyl)-piperidine fumaric acid]
172 to 173 °C	–	–	Fc1ccc(Oc2ncccc2OC[C@@H]2CCCNC2)cc1.O=C(O)/C=C/C(=O)O [Example 56, (R)-2-(4-fluoro-phenoxy)-3-(piperidin-3-ylmethoxy)-pyridine fumaric acid]
–	5.69	8.30	CC[C@H](Oc1cccnc1Oc1ccc(F)cc1)[C@H]1CCCNC1 [Example 85, (S,S)-2-(4-fluoro-phenoxy)-3-(1-piperidin-3-yl-propoxy)-pyridine fumaric acid]
–	6.15	7.89	CCOc1ncccc1O[C@@H](CC)[C@H]1CCCNC1 [Example 86, (S,S)-2-ethoxy-3-(1-piperidin-3-yl-propoxy)-pyridine fumaric acid]
–	5.12	8.30	c1ccc(Oc2ncccc2OC[C@H]2CCCNC2)cc1 [Example 93, (S)-2-phenoxy-3-(piperidin-3-ylmethoxy)-pyridine fumaric acid]
–	6.28	8.40	Cc1ccc(OC[C@H]2CCCNC2)c(Oc2ccccc2)n1 [Example 95, (S)-6-methyl-2-phenoxy-3-(piperidin-3-ylmethoxy)-pyridine fumaric acid]
–	6.28	9.00	Fc1ccc(Oc2cccc(F)c2OC[C@H]2CCCNC2)cc1 [Example 96, (S)-3-[2-fluoro-6-(4-fluoro-phenoxy)-phenoxymethyl]-piperidine fumaric acid]
–	6.16	9.00	Fc1ccc(Oc2cccc(F)c2OC[C@H]2CCCNC2)cc1F [Example 97, (S)-3-[2-(3,4-difluoro-phenoxy)-6-fluoro-phenoxymethyl]-piperidine fumaric acid]
–	5.89	9.00	Fc1ccc(Oc2c(F)cccc2OC[C@H]2CCCNC2)cc1 [Example 98, (S)-3-[3-fluoro-2-(4-fluoro-phenoxy)-phenoxymethyl]-piperidine trifluoroacetic acid]
–	5.59	7.48	CCOc1ccccc1OC[C@H]1CCCNC1 [Example 100, (S)-3-(2-ethoxy-phenoxymethyl)-piperidine fumaric acid]
–	5.92	7.35	COc1cccc(F)c1OC[C@H]1CCCNC1 [Example 103, (S)-3-(2-fluoro-6-methoxy-phenoxymethyl)-piperidine fumaric acid]
–	5.55	7.49	CCOc1cccc(F)c1OC[C@H]1CCCNC1 [Example 105, (S)-3-(2-ethoxy-6-fluoro-phenoxymethyl)-piperidine fumaric acid]
–	5.57	8.15	CCOc1ccccc1O[C@@H](C)[C@H]1CCCNC1 [Example 107, (S)-3-[(S)-1-(2-ethoxy-phenoxy)-ethyl]-piperidine]
–	6.14	8.52	C[C@H](Oc1ccccc1OCc1ccccc1)[C@H]1CCCNC1 [Example 108, (S)-3-[(S)-1-(2-benzyloxy-phenoxy)-ethyl]-piperidine oxalic acid]
–	6.38	8.52	C[C@H](Oc1ccccc1OCC1CCC1)[C@H]1CCCNC1 [Example 110, (S)-3-[(S)-1-(2-cyclobutylmethoxy-phenoxy)-ethyl]-piperidine oxalic acid]
–	5.74	8.30	C[C@H](Oc1ccccc1OC1CCCCC1)[C@H]1CCCNC1 [Example 111, (S)-3-[(S)-1-(2-cyclohexyloxy-phenoxy)-ethyl]-piperidine oxalic acid]
–	5.44	7.77	COCCOc1ccccc1O[C@@H](C)[C@H]1CCCNC1 [Example 113, (S)-3-{(S)-1-[2-(2-methoxy-ethoxy)-phenoxy]-ethyl}-piperidine hydrochloride]
–	5.43	8.15	CCOc1ccccc1O[C@@H](c1ccccn1)[C@H]1CCCNC1 [Example 114, 2-[{(R)-2-ethoxy-phenoxy}-(S)-piperidin-3-yl-methyl]-pyridine fumaric acid]
–	5.30	8.40	COc1cccc(F)c1O[C@@H](c1ccccn1)[C@H]1CCCNC1 [Example 115, 2-[{(R)-2-fluoro-6-methoxy-phenoxy}-(S)-piperidin-3-yl-methyl]-pyridine fumaric acid]
–	5.43	8.52	FC(F)(F)Oc1ccccc1O[C@@H](c1ccccn1)[C@H]1CCCNC1 [Example 116, 2-[(S)-piperidin-3-yl-{(R)-2-trifluoromethoxy-phenoxy}-methyl]-pyridine fumaric acid]
–	5.34	7.80	COc1ccc(F)cc1O[C@@H](c1ccccn1)[C@H]1CCCNC1 [Example 117, 2-[{(R)-5-fluoro-2-methoxy-phenoxy}-(S)-piperidin-3-yl-methyl]-pyridine fumaric acid]
–	5.60	7.42	COCCOc1ccccc1OC(C)(C)[C@H]1CCCNC1 [Example 118, (S)-3-{1-[2-(2-methoxy-ethoxy)-phenoxy]-1-methyl-ethyl}-piperidine fumaric acid]

Structure (SMILES)	melting point	pKi [1]	pKi [2]
CC[C@H](Oc1cccnc1OCC(C)C)[C@H]1CCCNC1 [Example 87, (S,S)-2-isobutoxy-3-(1-piperidin-3-yl-propoxy)-pyridine fumaric acid]	–	6.46	8.15
CC(C)COc1ccccc1O[C@@H](C)[C@H]1CCCNC1 [Example 109, (S)-3-[(S)-1-(2-isobutoxy-phenoxy)-ethyl]-piperidine]	–	5.92	8.52
CC(C)CCOc1ccccc1O[C@@H](C)[C@H]1CCCNC1 [Example 112, (S)-3-{(S)-1-[2-(3-methyl-butoxy)-phenoxy]-ethyl}-piperidine oxalic acid]	–	6.10	7.80
